Literature values in US20080085301A1, “Method for transdermal administration of antimicrobial medications” (priority 2005, published 2008).

Tested on: Streptococcus pneumoniae
Details: based on Streptococcus pneumoniae; in vitro

Structure (SMILES) | Approximate MIC
CCCCCCCCCC(=O)N[C@@H](Cc1c[nH]c2ccccc12)C(=O)N[C@H](CC(N)=O)C(=O)N[C@@H](CC(=O)O)C(=O)N[C@@H]1C(=O)NCC(=O)N[C@@H](CCCN)C(=O)N[C@@H](CC(=O)O)C(=O)N[C@H](C)C(=O)N[C@@H](CC(=O)O)C(=O)NCC(=O)N[C@H](CO)C(=O)N[C@@H]([C@H](C)CC(=O)O)C(=O)N[C@@H](CC(=O)c2ccccc2N)C(=O)O[C@@H]1C [Daptomycin] | ~0.5 µg/mL
CN[C@H](CC(C)C)C(=O)N[C@H]1C(=O)N[C@@H](CC(N)=O)C(=O)N[C@H]2C(=O)N[C@H]3C(=O)N[C@H](C(=O)N[C@H](C(=O)O)c4cc(O)cc(O)c4-c4cc3ccc4O)[C@H](O)c3ccc(c(Cl)c3)Oc3cc2cc(c3O[C@@H]2O[C@H](CO)[C@@H](O)[C@H](O)[C@H]2O[C@H]2C[C@](C)(N)[C@H](O)[C@H](C)O2)Oc2ccc(cc2Cl)[C@H]1O [Vancomycin] | ~16 µg/mL
O=C(N[C@H](CO)[C@H](O)c1ccc([N+](=O)[O-])cc1)C(Cl)Cl [Chloramphenicol] | ~4 µg/mL
CC(=O)NC[C@H]1CN(c2ccc(N3CCOCC3)c(F)c2)C(=O)O1 [Linezolid] | ~2 µg/mL
N[C@@H]1CON=C1O [Cycloserine] | ~32 µg/mL

Second part, the molecule after the results:

Approximate MIC | Structure (SMILES)
~1 µg/mL | C[C@@H](O)[C@H]1C(=O)N2C(C(=O)O)=C(S[C@@H]3CN[C@H](C(=O)N(C)C)C3)[C@H](C)[C@H]12 [Meropenem]
~2 µg/mL | [H]/N=C(/N)N[C@H]1[C@H](O)[C@@H](O)[C@H](O[C@@H]2O[C@@H](C)[C@](O)(C=O)[C@H]2O[C@@H]2O[C@@H](CO)[C@H](O)[C@@H](O)[C@@H]2NC)[C@@H](N/C(N)=N\[H])[C@@H]1O [Streptomycin]
~0.5 µg/mL | CO[C@H]1/C=C/O[C@@]2(C)Oc3c(C)c(O)c4c(O)c(c(/C=N/N5CCN(C)CC5)c(O)c4c3C2=O)NC(=O)/C(C)=C\C=C\[C@H](C)[C@H](O)[C@@H](C)[C@@H](O)[C@@H](C)[C@H](OC(C)=O)[C@@H]1C [Rifampin]
